Data taken from ChEMBL document CHEMBL1201862, “PubChem BioAssay data set” (2004).
Active and inactive are the calls of the source.

Experiments:
[1] = target: T1, Mucolipin-3 (Homo sapiens, UniProt Q8TDD5); test: TRPML3 agonist potency, dose response, cell-based, calcium fluorescence (AID 2510); assay type: functional
T1 sequence (Q8TDD5 whole entry): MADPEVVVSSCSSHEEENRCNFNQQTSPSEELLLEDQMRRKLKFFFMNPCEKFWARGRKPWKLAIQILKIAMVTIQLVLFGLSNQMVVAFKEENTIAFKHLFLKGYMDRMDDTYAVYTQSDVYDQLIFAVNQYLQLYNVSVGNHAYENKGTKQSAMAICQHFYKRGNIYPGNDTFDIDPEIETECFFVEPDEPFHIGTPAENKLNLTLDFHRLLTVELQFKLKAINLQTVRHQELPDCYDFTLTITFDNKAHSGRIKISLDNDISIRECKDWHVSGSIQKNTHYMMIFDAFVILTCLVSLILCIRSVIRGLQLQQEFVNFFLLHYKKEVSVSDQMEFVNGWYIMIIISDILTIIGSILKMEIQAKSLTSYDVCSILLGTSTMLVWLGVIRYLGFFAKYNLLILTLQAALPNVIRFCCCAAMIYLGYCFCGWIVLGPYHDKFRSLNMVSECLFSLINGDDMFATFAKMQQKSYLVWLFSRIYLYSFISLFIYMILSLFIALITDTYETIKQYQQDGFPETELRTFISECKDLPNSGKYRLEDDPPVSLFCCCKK

[2] = target: T1, Mucolipin-3; test: Dose response cell-based high-throughput screening assay for agonists of the transient receptor potential channel ML3 (TRPML3). [Related pubchem assays: 1526, 1424, 1448 ]; assay type: functional
[3] = target: T2, Ion channel NompC (Danio rerio, UniProt Q7T1G6); test: Fluorescence counterscreen assay for TRPML3 agonists: dose response cell-based high-throughput screening assay to identify agonists of the transient receptor potential channel N1 (TRPN1). [Related pubchem assays: 1526, 1424, 1448 ]; assay type: functional
[4] = target: T2, Ion channel NompC; test: Late stage counterscreen for the probe development effort to identify selective agonists of the Transient Receptor Potential Channels 3 (TRPML3): fluorescence-based cell-based dose response assay for TRPN1 agonists.; assay type: functional
[5] = target: Aryl hydrocarbon receptor (Homo sapiens, UniProt P35869); test: Luminescence-based cell-based high throughput dose response assay for activators of the Aryl Hydrocarbon Receptor (AHR). [Related pubchem assays: 2796 (Primary screen (AHR activators in singlicate)), 2845 (Confirmation screen (AHR activators in triplicate)), 434939 (Counterscreen (PXR activators in triplicate)), 2804 (Summary (AHR activators))]; assay type: ADME
[6] = target: Photoreceptor-specific nuclear receptor (Homo sapiens, UniProt Q9Y5X4); test: NR2E3 inverse agonists, dose response, biochemical, TR-FRET (AID 463256); assay type: functional
[7] = target: Peroxisome proliferator-activated receptor gamma/Nuclear receptor corepressor 2 (Homo sapiens, UniProt P37231+Q9Y618); test: Counterscreen for NR2E3 inverse agonists: TR-FRET-based biochemical high throughput dose response assay to identify inverse agonists of the interaction between peroxisome proliferator-activated receptor gamma (PPARg) and nuclear receptor co-repressor 2 (NCOR2).; assay type: functional
[8] = target: Cytochrome P450 2C19 (Homo sapiens, UniProt P33261); test: qHTS Assay for Inhibitors and Substrates of Cytochrome P450 2C19. [Related pubchem assays: 410 ]; assay type: ADME; settings: read-out: Potency
[9] = target: 5-hydroxytryptamine receptor 1E (Homo sapiens, UniProt P28566); test: Counterscreen assay for S1P3 antagonists: Dose response cell-based high throughput screening assay to identify antagonists of the 5-Hydroxytryptamine Receptor Subtype 1E (5HT1E). [Related pubchem assays: 1429, 485 ]; assay type: functional
[10] = target: Sphingosine 1-phosphate receptor 3 (Homo sapiens, UniProt Q99500); test: Dose response cell-based high throughput screening assay for antagonists of the Sphingosine 1-Phosphate Receptor 3 (S1P3). [Related pubchem assays: 1429, 485 ]; assay type: functional
[11] = target: T3, Orexin receptor type 2 (Homo sapiens, UniProt O43614); test: Counterscreen assay for antagonists of the orexin 1 receptor (OX1R; HCRTR1): Fluorescence-based cell-based dose response assay for antagonists of the orexin 2 receptor (OX2R; HCRTR2), run by assay provider.; assay type: functional
T3 sequence (O43614 whole entry): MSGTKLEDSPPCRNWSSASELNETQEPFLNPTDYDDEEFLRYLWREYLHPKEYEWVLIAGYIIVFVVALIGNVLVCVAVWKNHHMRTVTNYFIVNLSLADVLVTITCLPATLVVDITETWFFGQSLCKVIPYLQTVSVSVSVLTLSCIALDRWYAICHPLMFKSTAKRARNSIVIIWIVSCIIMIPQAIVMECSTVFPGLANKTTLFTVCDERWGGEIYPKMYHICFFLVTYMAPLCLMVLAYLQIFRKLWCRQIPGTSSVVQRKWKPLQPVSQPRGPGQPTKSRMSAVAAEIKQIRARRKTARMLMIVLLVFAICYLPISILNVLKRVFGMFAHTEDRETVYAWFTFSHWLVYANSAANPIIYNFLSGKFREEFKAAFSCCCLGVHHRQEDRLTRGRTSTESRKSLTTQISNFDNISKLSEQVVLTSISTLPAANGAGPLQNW

[12] = system: CHO-K1; test: (§1) Counterscreen for antagonists of the orexin 1 receptor (OX1R; HCRTR1): Homogeneous time resolved fluorescence (HTRF)-based cell-based dose response assay to identify antagonists of the parental CHO-K1 cell line. [Related pubchem assays (depositor defined):AID434989, AID435008, AID463079, AID485270, AID492963, AID492964, AID492965, AID493232, AID504699, AID504701]; assay type: functional; settings: Cricetulus griseus
[13] = target: T4, Orexin/Hypocretin receptor type 1 (Homo sapiens, UniProt O43613); test: Homogeneous Time Resolved Fluorescence (HTRF)-based cell-based high throughput dose response assay for antagonists of the orexin 1 receptor (OX1R; HCRTR1). [Related pubchem assays (depositor defined):AID434989, AID435008, AID463079, AID485270, AID492963, AID492964, AID492965, AID493232, AID504717, AID504718]; assay type: functional
T4 sequence (O43613 whole entry): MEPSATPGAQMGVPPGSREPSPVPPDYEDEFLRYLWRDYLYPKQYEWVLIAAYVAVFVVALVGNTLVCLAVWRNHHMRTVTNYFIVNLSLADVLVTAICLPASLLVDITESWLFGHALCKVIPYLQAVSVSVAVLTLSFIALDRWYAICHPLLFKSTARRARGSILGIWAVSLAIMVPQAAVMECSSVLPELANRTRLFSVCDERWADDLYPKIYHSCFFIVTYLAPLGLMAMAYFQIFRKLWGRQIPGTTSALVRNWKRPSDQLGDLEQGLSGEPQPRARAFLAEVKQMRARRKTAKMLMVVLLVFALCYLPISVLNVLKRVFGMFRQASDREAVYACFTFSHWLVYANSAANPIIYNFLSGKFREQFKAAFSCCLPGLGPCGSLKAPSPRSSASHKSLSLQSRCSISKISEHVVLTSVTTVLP

[14] = M. tuberculosis growth inhibition, HTS (AID 449762); assay type: functional
[15] = target: T4, Orexin/Hypocretin receptor type 1; test: Fluorescence-based cell-based high throughput dose response assay for antagonists of the orexin 1 receptor (OX1R; HCRTR1). [Related pubchem assays (depositor defined):AID434989, AID435008, AID463079, AID485270, AID492963, AID492964, AID492965, AID493232, AID504717, AID504718]; assay type: functional
[16] = target: T3, Orexin receptor type 2; test: Counterscreen assay for antagonists of the orexin 1 receptor (OX1R; HCRTR1): Homogeneous Time Resolved Fluorescence (HTRF)-based cell-based dose response assay for antagonists of the orexin 2 receptor (OX2R; HCRTR2), run by assay provider.; assay type: functional
[17] = as §1, with “Fluorescence-based” for “Homogeneous time resolved fluorescence (HTRF)-based”, “cell-based high throughput” for “cell-based”, “CHO” for “CHO-K1”; assay type: functional
[18] = Luminescence Cell-Based Dose Confirmation HTS to Identify Inhibitors of Polyadenylation.; assay type: functional
[19] = target: T5, Heat shock factor protein 1 (Mus musculus, UniProt P38532); test: HSF1 potentiators in luciferase reporter cells, confirmation, cell-based, NIH3T3, luminescence, dose retest (AID 435004); assay type: functional;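 also: stress induced by proteasome inhibitor MG132 added 30 min after compound; luciferase reporter driven by HSF1 response element in NIH3T3 cells; actives raise luminescence as potentiators of the MG132 stress response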
T5 sequence (P38532 whole entry): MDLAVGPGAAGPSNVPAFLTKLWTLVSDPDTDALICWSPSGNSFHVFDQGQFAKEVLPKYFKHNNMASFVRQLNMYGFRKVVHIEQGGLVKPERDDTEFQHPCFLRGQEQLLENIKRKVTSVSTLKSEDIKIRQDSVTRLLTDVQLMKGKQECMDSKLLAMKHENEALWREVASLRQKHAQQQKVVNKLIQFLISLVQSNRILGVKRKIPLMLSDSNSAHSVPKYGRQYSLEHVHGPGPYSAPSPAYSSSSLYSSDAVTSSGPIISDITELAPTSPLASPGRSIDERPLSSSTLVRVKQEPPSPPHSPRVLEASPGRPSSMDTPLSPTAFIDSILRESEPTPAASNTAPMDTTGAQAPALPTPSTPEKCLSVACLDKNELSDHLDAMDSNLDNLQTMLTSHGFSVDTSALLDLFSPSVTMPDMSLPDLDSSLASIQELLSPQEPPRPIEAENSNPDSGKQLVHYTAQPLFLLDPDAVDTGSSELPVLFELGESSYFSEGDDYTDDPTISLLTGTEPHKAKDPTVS

[20] = target: T6, Dual specificity protein phosphatase 6 (Rattus norvegicus, UniProt Q64346); test: MKP-3 phosphatase inhibitors, primary screen, biochemical, rat enzyme, in vitro (AID 425)
T6 sequence (Q64346 whole entry): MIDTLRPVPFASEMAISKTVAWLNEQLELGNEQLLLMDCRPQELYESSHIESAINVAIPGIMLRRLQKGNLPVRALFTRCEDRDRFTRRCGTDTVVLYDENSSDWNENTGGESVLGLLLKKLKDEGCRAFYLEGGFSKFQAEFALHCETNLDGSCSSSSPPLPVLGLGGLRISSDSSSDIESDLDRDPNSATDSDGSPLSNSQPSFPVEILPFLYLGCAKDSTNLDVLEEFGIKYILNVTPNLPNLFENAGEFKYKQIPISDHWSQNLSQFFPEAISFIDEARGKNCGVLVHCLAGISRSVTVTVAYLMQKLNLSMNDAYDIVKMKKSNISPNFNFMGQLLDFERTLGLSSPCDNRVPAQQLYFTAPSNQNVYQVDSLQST

[21] = target: NADPH oxidase 1 (Homo sapiens, UniProt Q9Y5S8); assay type: functional, cell-based;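 also: Cell-based assay with luminescence read-out, IC50 derived from inhibitor dose-response curves; intracellular ROS from endogenous NOX1 in intact HT29 colon cancer cells; potency of inhibitors that lower the ROS luminescence signal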
[22] = target: T7, Bcl-2-related protein A1 (Mus musculus, UniProt Q07440); test: Bfl-1 inhibitors blocking BH3 peptide binding, confirmation, biochemical, TR-FRET, mouse Bfl-1 (AID 621);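 also: TR-FRET binding of GST-Bfl-1 to FITC-labelled Bid peptide via terbium antibody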
T7 sequence (Q07440 whole entry): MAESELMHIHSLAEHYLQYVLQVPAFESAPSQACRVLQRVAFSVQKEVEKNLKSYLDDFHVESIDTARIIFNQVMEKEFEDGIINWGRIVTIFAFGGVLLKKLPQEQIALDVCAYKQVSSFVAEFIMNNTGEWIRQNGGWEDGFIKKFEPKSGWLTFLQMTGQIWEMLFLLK

[23] = target: T7, Bcl-2-related protein A1; test: Bfl-1 binding inhibitors, SAR follow-up, biochemical, fluorescence polarization (AID 1070)
[24] = target: Glyceraldehyde-3-phosphate dehydrogenase (Homo sapiens, UniProt P04406)
Glyceraldehyde-3-phosphate dehydrogenase, sequence (P04406 whole entry): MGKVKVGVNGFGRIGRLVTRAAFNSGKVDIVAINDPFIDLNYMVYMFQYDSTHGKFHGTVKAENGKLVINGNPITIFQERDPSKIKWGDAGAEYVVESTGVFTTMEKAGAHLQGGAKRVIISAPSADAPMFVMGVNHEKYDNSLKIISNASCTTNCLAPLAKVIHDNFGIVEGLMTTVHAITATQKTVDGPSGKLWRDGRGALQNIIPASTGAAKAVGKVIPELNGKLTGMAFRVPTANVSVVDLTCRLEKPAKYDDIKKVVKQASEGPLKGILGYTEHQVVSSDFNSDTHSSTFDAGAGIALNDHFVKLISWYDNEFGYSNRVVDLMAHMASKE

T2 sequence (Q7T1G6 whole entry): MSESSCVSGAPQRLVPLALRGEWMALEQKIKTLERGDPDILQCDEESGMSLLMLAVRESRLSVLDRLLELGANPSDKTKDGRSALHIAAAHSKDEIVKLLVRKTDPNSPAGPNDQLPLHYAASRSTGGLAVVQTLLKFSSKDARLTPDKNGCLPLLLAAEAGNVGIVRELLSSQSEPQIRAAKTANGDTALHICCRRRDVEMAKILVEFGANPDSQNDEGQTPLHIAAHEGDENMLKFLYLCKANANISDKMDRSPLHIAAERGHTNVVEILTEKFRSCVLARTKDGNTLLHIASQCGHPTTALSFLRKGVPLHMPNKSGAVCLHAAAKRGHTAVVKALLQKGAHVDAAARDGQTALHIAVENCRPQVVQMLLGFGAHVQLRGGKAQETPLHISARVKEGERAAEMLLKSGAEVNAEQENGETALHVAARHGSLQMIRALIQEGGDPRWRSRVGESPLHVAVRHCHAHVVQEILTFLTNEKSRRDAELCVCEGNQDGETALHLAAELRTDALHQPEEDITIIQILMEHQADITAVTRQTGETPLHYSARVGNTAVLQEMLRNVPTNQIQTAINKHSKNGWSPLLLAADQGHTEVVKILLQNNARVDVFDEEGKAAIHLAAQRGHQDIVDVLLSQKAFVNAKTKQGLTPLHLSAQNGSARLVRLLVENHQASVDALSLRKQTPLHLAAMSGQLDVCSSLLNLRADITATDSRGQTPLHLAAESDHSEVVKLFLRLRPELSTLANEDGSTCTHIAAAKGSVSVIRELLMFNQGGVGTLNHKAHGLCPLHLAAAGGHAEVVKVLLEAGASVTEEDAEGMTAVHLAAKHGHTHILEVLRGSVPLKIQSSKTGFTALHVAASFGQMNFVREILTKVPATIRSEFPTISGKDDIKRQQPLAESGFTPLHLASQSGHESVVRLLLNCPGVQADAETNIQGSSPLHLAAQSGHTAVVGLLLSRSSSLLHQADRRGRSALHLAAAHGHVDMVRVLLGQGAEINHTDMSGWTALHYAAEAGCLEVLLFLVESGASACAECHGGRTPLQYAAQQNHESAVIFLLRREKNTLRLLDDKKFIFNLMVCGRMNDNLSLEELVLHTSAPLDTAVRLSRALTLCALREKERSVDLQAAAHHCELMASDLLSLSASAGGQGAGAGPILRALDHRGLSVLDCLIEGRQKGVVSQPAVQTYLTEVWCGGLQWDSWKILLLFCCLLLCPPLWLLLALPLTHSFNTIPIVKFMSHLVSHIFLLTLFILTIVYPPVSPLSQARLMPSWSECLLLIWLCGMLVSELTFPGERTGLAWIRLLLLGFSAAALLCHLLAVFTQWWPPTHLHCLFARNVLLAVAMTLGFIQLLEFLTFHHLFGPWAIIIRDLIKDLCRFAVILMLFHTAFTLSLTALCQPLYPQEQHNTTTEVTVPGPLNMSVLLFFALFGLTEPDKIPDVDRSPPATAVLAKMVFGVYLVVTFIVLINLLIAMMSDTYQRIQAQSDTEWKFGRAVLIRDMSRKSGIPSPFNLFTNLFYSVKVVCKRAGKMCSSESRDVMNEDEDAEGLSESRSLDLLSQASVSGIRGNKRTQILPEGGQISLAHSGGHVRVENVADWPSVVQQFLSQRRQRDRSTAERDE
Photoreceptor-specific nuclear receptor, sequence (Q9Y5X4 whole entry): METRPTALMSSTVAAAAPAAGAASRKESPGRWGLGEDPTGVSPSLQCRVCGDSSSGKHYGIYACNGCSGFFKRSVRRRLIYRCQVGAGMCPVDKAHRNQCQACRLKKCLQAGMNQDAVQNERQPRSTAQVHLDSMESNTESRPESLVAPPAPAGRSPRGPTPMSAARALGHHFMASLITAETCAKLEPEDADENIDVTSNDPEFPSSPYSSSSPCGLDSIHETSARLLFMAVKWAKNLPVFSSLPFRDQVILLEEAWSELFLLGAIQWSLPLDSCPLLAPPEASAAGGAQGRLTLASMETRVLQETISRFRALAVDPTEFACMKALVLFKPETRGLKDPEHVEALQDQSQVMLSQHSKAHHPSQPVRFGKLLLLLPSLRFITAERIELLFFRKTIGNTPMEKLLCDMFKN
Aryl hydrocarbon receptor, sequence (P35869 whole entry): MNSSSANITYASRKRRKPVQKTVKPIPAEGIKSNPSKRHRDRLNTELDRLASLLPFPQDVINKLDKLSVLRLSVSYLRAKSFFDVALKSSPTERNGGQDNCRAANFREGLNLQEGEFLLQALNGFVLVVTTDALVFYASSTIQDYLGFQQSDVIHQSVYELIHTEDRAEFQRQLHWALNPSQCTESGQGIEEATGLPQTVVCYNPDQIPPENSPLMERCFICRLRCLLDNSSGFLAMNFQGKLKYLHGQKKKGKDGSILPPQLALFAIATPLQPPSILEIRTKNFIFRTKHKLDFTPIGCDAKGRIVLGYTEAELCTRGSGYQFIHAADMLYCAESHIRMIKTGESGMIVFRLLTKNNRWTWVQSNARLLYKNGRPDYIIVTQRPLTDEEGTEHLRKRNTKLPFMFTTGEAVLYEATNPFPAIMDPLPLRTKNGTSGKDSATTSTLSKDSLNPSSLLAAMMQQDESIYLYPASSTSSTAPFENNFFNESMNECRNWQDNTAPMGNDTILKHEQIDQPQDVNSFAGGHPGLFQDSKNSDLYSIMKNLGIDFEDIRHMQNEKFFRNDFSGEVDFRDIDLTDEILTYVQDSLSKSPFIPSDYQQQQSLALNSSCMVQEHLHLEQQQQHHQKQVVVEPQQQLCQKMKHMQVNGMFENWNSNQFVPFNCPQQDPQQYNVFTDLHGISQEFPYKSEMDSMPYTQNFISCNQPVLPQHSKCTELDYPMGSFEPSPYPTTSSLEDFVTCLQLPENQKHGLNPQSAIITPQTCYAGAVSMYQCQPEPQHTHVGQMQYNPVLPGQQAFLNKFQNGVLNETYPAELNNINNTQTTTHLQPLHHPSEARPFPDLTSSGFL
NADPH oxidase 1, sequence (Q9Y5S8 whole entry): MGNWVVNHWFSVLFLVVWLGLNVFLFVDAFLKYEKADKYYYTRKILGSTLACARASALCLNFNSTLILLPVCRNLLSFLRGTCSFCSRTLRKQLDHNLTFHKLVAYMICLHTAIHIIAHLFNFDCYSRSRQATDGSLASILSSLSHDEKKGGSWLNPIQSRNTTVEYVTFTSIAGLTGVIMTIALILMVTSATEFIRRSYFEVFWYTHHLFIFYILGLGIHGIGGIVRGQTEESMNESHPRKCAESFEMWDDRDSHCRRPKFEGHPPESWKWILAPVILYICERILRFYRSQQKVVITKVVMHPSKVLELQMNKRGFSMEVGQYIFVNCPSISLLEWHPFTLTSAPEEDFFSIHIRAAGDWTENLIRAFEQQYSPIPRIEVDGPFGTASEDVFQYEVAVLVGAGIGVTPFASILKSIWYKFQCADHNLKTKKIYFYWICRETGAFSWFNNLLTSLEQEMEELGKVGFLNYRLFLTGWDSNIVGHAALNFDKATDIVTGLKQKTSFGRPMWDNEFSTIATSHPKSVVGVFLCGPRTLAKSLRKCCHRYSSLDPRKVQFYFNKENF
Sphingosine 1-phosphate receptor 3, sequence (Q99500 whole entry): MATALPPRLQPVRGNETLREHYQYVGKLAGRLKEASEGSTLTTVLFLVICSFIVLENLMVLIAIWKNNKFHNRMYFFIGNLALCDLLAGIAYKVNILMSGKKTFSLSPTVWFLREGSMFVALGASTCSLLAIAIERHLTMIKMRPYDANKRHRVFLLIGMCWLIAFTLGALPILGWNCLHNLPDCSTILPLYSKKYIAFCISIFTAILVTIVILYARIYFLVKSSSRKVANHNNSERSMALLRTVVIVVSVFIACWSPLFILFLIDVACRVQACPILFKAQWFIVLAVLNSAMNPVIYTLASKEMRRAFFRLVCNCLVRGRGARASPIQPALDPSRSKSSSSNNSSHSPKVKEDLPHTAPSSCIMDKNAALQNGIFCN
Cytochrome P450 2C19, sequence (P33261 whole entry): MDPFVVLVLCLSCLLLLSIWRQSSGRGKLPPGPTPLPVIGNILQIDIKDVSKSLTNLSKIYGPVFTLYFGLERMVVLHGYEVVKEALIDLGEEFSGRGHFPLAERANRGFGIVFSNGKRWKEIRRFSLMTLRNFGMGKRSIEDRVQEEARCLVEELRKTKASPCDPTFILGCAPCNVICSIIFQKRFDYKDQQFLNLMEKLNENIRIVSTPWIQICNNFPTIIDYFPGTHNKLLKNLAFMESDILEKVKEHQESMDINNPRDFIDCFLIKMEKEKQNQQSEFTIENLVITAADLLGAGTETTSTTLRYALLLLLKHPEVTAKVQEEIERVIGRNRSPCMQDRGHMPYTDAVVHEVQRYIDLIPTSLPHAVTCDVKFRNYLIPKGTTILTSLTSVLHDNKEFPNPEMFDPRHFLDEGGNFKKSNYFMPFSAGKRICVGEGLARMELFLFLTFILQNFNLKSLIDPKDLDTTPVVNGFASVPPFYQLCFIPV
5-hydroxytryptamine receptor 1E, sequence (P28566 whole entry): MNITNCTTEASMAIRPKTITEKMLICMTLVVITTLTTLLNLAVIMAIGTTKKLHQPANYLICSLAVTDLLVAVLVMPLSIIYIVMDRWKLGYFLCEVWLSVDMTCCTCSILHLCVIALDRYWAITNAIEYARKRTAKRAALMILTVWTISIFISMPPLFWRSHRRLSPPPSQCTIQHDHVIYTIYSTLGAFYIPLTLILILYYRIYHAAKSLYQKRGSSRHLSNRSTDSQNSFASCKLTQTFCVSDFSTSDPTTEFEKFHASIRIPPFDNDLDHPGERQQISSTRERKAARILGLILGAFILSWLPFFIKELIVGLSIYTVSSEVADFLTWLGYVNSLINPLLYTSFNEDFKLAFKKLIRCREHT

**Q.** What does the source list for `CCCOc1cc(C)c(Cl)cc1S(=O)(=O)N(CC)CC`?
**A.** EC50 [1]: 4.72 µM (active); EC50 [2]: 1.6 µM (active); EC50 [3]: > 29.9 µM (not active); EC50 [4]: > 29.9 µM (not active)

**Q.** Which EC50 [5] does the source give for `CCOc1ccc(-c2cc(C)n3nc(C(N)=O)cc3n2)cc1` here?
**A.** The EC50 was 2.63 µM (active).

**Q.** What does the source list for `Cc1cc(=O)oc2cc(OCC(=O)NCCc3c[nH]c4ccc(F)cc34)ccc12`?
**A.** IC50 [6]: 6.11 µM (active); IC50 [7]: 8.78 µM (active)

**Q.** With `CC(C)C[C@@H](CC(=O)N[C@H](CC(=O)N[C@@H]1CCNC[C@H]1C(=O)N[C@H](CC(=O)N[C@@H](CCC(=O)O)CC(=O)O)Cc1ccccc1)C(C)C)NC(=O)[C@@H]1CCCC[C@H]1N` as the molecule, how does the AC50 [8] read?
**A.** The AC50 was 39.8 µM (inconclusive).

**Q.** With `O=C(CSc1nnc(-c2ccc(Br)o2)n1Cc1ccccc1)c1ccccc1F` as the molecule, how does the IC50 [9] read?
**A.** Its IC50 is > 50 µM (not active).

**Q.** And the IC50 [10]?
**A.** Its IC50 is > 50 µM (not active).

**Q.** With `N#C/C(=C1\CCCN1)c1nc(-c2ccccc2)cs1` as the molecule, how does the IC50 [11] read?
**A.** Its IC50 is > 88.8 µM (inactive).

**Q.** And the IC50 [12]?
**A.** The IC50 was > 66.2 µM (inactive).

**Q.** And the IC50 [13]?
**A.** The IC50 was 2.44 µM (active).

**Q.** And the IC50 [14]?
**A.** The IC50 was > 100 µM (active).

**Q.** And the IC50 [15]?
**A.** The IC50 was 7.67 µM (active).

**Q.** And the IC50 [16]?
**A.** Its IC50 is > 50 µM (inactive).

**Q.** What about the IC50 [17] of the same molecule?
**A.** Its IC50 is > 49.8 µM (inactive).

**Q.** With `CC(NC(=O)c1ccc(Br)cc1Br)c1ccccc1` (centres undefined) as the molecule, how does the EC50 [18] read?
**A.** The EC50 was > 120 µM (not active).

**Q.** For `[O-]/[N+](=C\c1ccc(OC(F)F)cc1)c1ccccc1`, which EC50 [19] is on record?
**A.** Its EC50 is > 260 µM (inactive).

**Q.** What about the IC50 [20] of the same molecule?
**A.** Its IC50 is > 100 µM (not active).

**Q.** Which IC50 [21] does the source give for `COc1ccc2c(Cl)c(C(=O)Oc3ccccc3Cl)sc2c1` here?
**A.** Its IC50 is > 17 µM (not active).

**Q.** Which results are given for `O=C1C(Cl)=C(NCc2ccccc2)C(=O)N1c1ccc(Cl)c(Cl)c1`?
**A.** IC50 [22]: 73.7 µM (active); IC50 [23]: > 100 µM (not active); IC50 [24]: > 100 µM (not active)
